Test results taken from patent US9919998B2, “Antibacterial agents: Nα-aroyl-N-aryl-phenylalaninamides” (priority 2014, dated 2018).
≈ marks a conversion by molar mass, not a printed value.

What was measured:
Assay type in all cases: cell-based
[1] = test system: Mycobacterium tuberculosis H37Rv; assay: Microplate Alamar Blue assay (MABA) MIC, M. tuberculosis; details: read-out: MIC Mycobacterium tuberculosis H37Rv
From the text: (§1) Minimal inhibitory concentrations (MICs) in Mycobacterium tuberculosis H37Rv and Mycobacterium avium ATCC 25291 were quantified using microplate Alamar Blue assays as described (MABA; [Collins, L. & Franzblau, S. (1997) Microplate Alamar Blue assay versus BACTEC 460 system for high-throughput screening of compounds against Mycobacterium tuberculosis and Mycobacterium avium. Antimicrob. Agents Chemother. 41, 1004-1009]).

[2] = test system: Mycobacterium smegmatis ATCC 19420; assay: Broth microdilution MIC, M. smegmatis; details: Mycolicibacterium smegmatis, ATCC19420, M. smegmatis ATCC 19420; read-out: MIC Mycobacterium smegmatis ATCC 19420
From the text: MICs in Mycobacterium smegmatis ATCC 19420 and Mycobacterium smegmatis ATCC 19420 derivatives were quantified using broth microdilution assays as described [Clinical and Laboratory Standards Institute (CLSI/NCCLS) (2009) Methods for Dilution Antimicrobial Susceptibility Tests for Bacteria That Grow Aerobically; Approved Standard, Eighth Edition. CLIS Document M07-A8 (CLIS, Wayne Pa.)].

[3] = test system: Mycobacterium avium ATCC 25291; assay: Microplate Alamar Blue assay (MABA) MIC, M. avium; details: ATCC25291, M. avium ATCC 25291
From the text: as §1

[4] = test system: Vero E6 ATCC CRL1586 cells; assay: Mammalian-cell cytotoxicity, minimal cytotoxic concentration (CellTiter96)
Protocol: Minimal cytotoxic concentrations (MCCs) against mammalian cells in culture were determined using Vero E6 ATCC CRL1586 cells and the CellTiter96 assay kit (Promega, Inc.). […]

Cc1ccc(F)cc1NC(=O)C(Cc1ccccc1)NC(=O)c1ccccc1C (stereo not drawn) [IX-83, N-(1-((5-fluoro-2-methylphenyl)amino)-1-oxo-3-phenylpropan-2-yl)-2-methylbenzamide] gave an MIC [1] of 0.78 µg/mL (≈ 2 µM), an MIC [2] of 0.195 µg/mL (≈ 0.499 µM) and an MIC [3] of 1.56 µg/mL (≈ 4 µM). The “MCC mammalian cells Vero E6 ATCC CRL1586” value [4] was 1.4 µg/mL.
Compound Cc1ccccc1NC(=O)C(Cc1ccccc1)NC(=O)c1cccc(OC(F)F)c1 (stereo not drawn) [I-70] has an MIC [1] of 6.25 µg/mL (≈ 14.7 µM), an MIC [2] of 50 µg/mL (≈ 118 µM) and an MIC [3] greater than 50 µg/mL. The “MCC mammalian cells Vero E6 ATCC CRL1586” value [4] was 90 µg/mL.
For Cc1ccccc1C(=O)NC(Cc1ccccc1)C(=O)Nc1cccc2c1OCCO2 (stereo not drawn) [IX-71, N-(1-((2,3-dihydrobenzo[b][1,4]dioxin-5-yl)amino)-1-oxo-3-phenylpropan-2-yl)-2-methylbenzamide], the MIC [1] was 1.56 µg/mL (≈ 3.75 µM), the MIC [2] was 0.39 µg/mL (≈ 0.936 µM) and the MIC [3] was 3.12 µg/mL (≈ 7.5 µM). The “MCC mammalian cells Vero E6 ATCC CRL1586” value [4] was 10 µg/mL.
For O=C(NC(Cc1ccc(O)cc1)C(=O)Nc1cccc2ccncc12)c1ccccc1 (stereo not drawn) [IX-18, N-(3-(4-hydroxyphenyl)-1-(isoquinolin-8-ylamino)-1-oxopropan-2-yl)benzamide], the MIC [1] was 6.25 µg/mL (≈ 15.2 µM), the MIC [2] was 0.39 µg/mL (≈ 0.948 µM) and the MIC [3] was 12.5 µg/mL (≈ 30.4 µM). For the same compound, the “MCC mammalian cells Vero E6 ATCC CRL1586” value [4] was greater than 100 µg/mL.
O=C(NC(Cc1ccccc1)C(=O)Nc1cccc2ccsc12)c1ccccc1 (stereo not drawn) [II-47] gave an MIC [1] of 1.56 µg/mL (≈ 3.9 µM), an MIC [2] of 1.56 µg/mL (≈ 3.9 µM) and an MIC [3] of 3.12 µg/mL (≈ 7.8 µM). The “MCC mammalian cells Vero E6 ATCC CRL1586” value [4] was greater than 100 µg/mL.
Compound Cc1ccccc1NC(=O)C(Cc1ccc(O)cc1)NC(=O)c1cccs1 (stereo not drawn) [IX-28, N-(3-(4-hydroxyphenyl)-1-oxo-1-(o-tolylamino)propan-2-yl)thiophene-2-carboxamide] has an MIC [1] of 12.5 µg/mL (≈ 32.9 µM), an MIC [2] of 0.39 µg/mL (≈ 1.03 µM) and an MIC [3] of 12.5 µg/mL (≈ 32.9 µM). The “MCC mammalian cells Vero E6 ATCC CRL1586” value [4] was 80 µg/mL.
Work on Cc1ccccc1C(=O)NC(Cc1ccc(O)cc1)C(=O)Nc1ccccc1N1CCOCC1 (stereo not drawn) [IX-156, N-(3-(4-hydroxyphenyl)-1-((2-morpholinophenyl)amino)-1-oxopropan-2-yl)-2-methylbenzamide] yielded an MIC [1] of 1.56 µg/mL (≈ 3.39 µM), an MIC [2] of 0.095 µg/mL (≈ 0.207 µM) and an MIC [3] of 3.12 µg/mL (≈ 6.8 µM). The “MCC mammalian cells Vero E6 ATCC CRL1586” value [4] was 81 µg/mL.
For Cc1ccccc1C(=O)NC(Cc1ccccc1)C(=O)Nc1cccc2cc[nH]c12 (stereo not drawn) [IX-97, N-(1-((1H-indol-7-yl)amino)-1-oxo-3-phenylpropan-2-yl)-2-methylbenzamide], the MIC [1] was 6.25 µg/mL (≈ 15.7 µM), the MIC [2] was 0.39 µg/mL (≈ 0.981 µM) and the MIC [3] was 12.5 µg/mL (≈ 31.4 µM). For the same compound, the “MCC mammalian cells Vero E6 ATCC CRL1586” value [4] was 15 µg/mL.
For COc1cccc(NC(=O)C(Cc2ccccc2)NC(=O)c2ccccc2)c1C (stereo not drawn) [I-18], the MIC [1] was greater than 50 µg/mL, the MIC [2] was 0.78 µg/mL (≈ 2.01 µM) and the MIC [3] was greater than 50 µg/mL. The “MCC mammalian cells Vero E6 ATCC CRL1586” value [4] was greater than 100 µg/mL.
For COc1ccccc1NC(=O)C(Cc1ccccc1)NC(=O)c1ccccc1F (stereo not drawn) [IX-56, 2-fluoro-N-(1-((2-methoxyphenyl)amino)-1-oxo-3-phenylpropan-2-yl)benzamide], the MIC [1] was 3.12 µg/mL (≈ 7.96 µM), the MIC [2] was 0.39 µg/mL (≈ 0.994 µM) and the MIC [3] was 6.25 µg/mL (≈ 15.9 µM). For the same compound, the “MCC mammalian cells Vero E6 ATCC CRL1586” value [4] was 97 µg/mL.
For O=C(NC(Cc1ccccc1)C(=O)Nc1cccc2ncccc12)c1ccccc1Cl (stereo not drawn) [IX-64, 2-chloro-N-(1-oxo-3-phenyl-1-(quinolin-5-ylamino)propan-2-yl)benzamide], the MIC [1] was 12.5 µg/mL (≈ 29.1 µM), the MIC [2] was 0.78 µg/mL (≈ 1.81 µM) and the MIC [3] was 50 µg/mL (≈ 116 µM). For the same compound, the “MCC mammalian cells Vero E6 ATCC CRL1586” value [4] was 78 µg/mL.
Cc1ccccc1C(=O)NC(Cc1ccccc1)C(=O)Nc1cccc2ncccc12 (stereo not drawn) [IX-70, 2-methyl-N-(1-oxo-3-phenyl-1-(quinolin-5-ylamino)propan-2-yl)benzamide] gave an MIC [1] of 12.5 µg/mL (≈ 30.5 µM), an MIC [2] of 0.39 µg/mL (≈ 0.952 µM) and an MIC [3] of 25 µg/mL (≈ 61.1 µM). For the same compound, the “MCC mammalian cells Vero E6 ATCC CRL1586” value [4] was 63 µg/mL.
Work on CC(=O)Oc1ccc(CC(NC(=O)c2ccccc2F)C(=O)Nc2ccccc2N2CCOCC2)cc1 (stereo not drawn) [IX-180, 4-(2-(2-fluorobenzamido)-3-((2-morpholinophenyl)amino)-3-oxopropyl)phenyl acetate] yielded an MIC [1] of 1.56 µg/mL, an MIC [2] of 0.097 µg/mL and an MIC [3] of 6.25 µg/mL. For the same compound, the “MCC mammalian cells Vero E6 ATCC CRL1586” value [4] was 91 µg/mL.
For Cc1ccccc1C(=O)NC(Cc1ccccc1)C(=O)Nc1ccccc1N1CCOCC1 (stereo not drawn) [IX-153, 2-methyl-N-(1-((2-morpholinophenyl)amino)-1-oxo-3-phenylpropan-2-yl)benzamide], the MIC [1] was 0.78 µg/mL (≈ 1.76 µM), the MIC [2] was 0.036 µg/mL (≈ 0.0812 µM) and the MIC [3] was 1.56 µg/mL (≈ 3.52 µM). The “MCC mammalian cells Vero E6 ATCC CRL1586” value [4] was 84 µg/mL.
In the case of O=C(NC(Cc1ccccc1)C(=O)Nc1cccc2cn[nH]c12)c1ccccc1 (stereo not drawn) [IX-39, N-(1-((1H-indazol-7-yl)amino)-1-oxo-3-phenylpropan-2-yl)benzamide], the MIC [1] is reported as greater than 50 µg/mL, the MIC [2] is reported as 1.56 µg/mL (≈ 4.06 µM) and the MIC [3] is reported as greater than 50 µg/mL. For the same compound, the “MCC mammalian cells Vero E6 ATCC CRL1586” value [4] was 20 µg/mL.
